# Tested on: OVCAR-5 complex spheroids, viability
# Assay: Anticancer human tumor OVCAR-5 cell line growth inhibition;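 also: spheroids exposed to agents for seven days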;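 as to viability, T/C: 100% = DMSO vehicle control wells viability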
# Conditions: for IC50: curve of first compound; for viability, T/C: stronger effect = lower value
# In short: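 Multicellular complex spheroids of tumor cells with human endothelial cells (HUVEC) and mesenchymal stem cells; the LSD1 inhibitor iadademstat was combined with standard-of-care or investigational agents. Top concentration at or near clinical Cmax, half-log dilutions; final DMSO ≤0.25%.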
# [1] = second compound 0.1 µM, first compound 0.0316 µM
# [2] = second compound 0.1 µM, first compound 0.1 µM
# [3] = second compound 0.1 µM, first compound 0.316 µM
# [4] = second compound 0.1 µM, first compound 1 µM
# [5] = second compound 0.1 µM, first compound 3.16 µM
# [6] = second compound 0.1 µM, first compound 10 µM
# [7] = second compound 0.316 µM, first compound 0.0316 µM
# [8] = second compound 0.316 µM, first compound 0.1 µM
# [9] = second compound 0.316 µM, first compound 0.316 µM
# [10] = second compound 0.316 µM, first compound 1 µM
# [11] = second compound 0.316 µM, first compound 3.16 µM
# [12] = second compound 0.316 µM, first compound 10 µM
# [13] = second compound 1 µM, first compound 0.0316 µM
# [14] = second compound 1 µM, first compound 0.1 µM
# [15] = second compound 1 µM, first compound 0.316 µM
# [16] = second compound 1 µM, first compound 1 µM
# [17] = second compound 1 µM, first compound 3.16 µM
# [18] = second compound 1 µM, first compound 10 µM
# [19] = second compound 3.16 µM, first compound 0.0316 µM
# [20] = second compound 3.16 µM, first compound 0.1 µM
# [21] = second compound 3.16 µM, first compound 0.316 µM
# [22] = second compound 3.16 µM, first compound 1 µM
# [23] = second compound 3.16 µM, first compound 3.16 µM
# [24] = second compound 3.16 µM, first compound 10 µM
# [25] = second compound 10 µM, first compound 0.0316 µM
# [26] = second compound 10 µM, first compound 0.1 µM
# [27] = second compound 10 µM, first compound 0.316 µM
# [28] = second compound 10 µM, first compound 1 µM
# [29] = second compound 10 µM, first compound 3.16 µM
# [30] = second compound 10 µM, first compound 10 µM
# [31] = second compound 0.1 µM, first compound 0.00949 µM
# [32] = second compound 0.1 µM, first compound 0.03 µM
# [33] = second compound 0.1 µM, first compound 0.0949 µM
# [34] = second compound 0.1 µM, first compound 0.3 µM
# [35] = second compound 0.316 µM, first compound 0.00949 µM
# [36] = second compound 0.316 µM, first compound 0.03 µM
# [37] = second compound 0.316 µM, first compound 0.0949 µM
# [38] = second compound 0.316 µM, first compound 0.3 µM
# [39] = second compound 1 µM, first compound 0.00949 µM
# [40] = second compound 1 µM, first compound 0.03 µM
# [41] = second compound 1 µM, first compound 0.0949 µM
# [42] = second compound 1 µM, first compound 0.3 µM
# [43] = second compound 3.16 µM, first compound 0.00949 µM
# [44] = second compound 3.16 µM, first compound 0.03 µM
# [45] = second compound 3.16 µM, first compound 0.0949 µM
# [46] = second compound 3.16 µM, first compound 0.3 µM
# [47] = second compound 10 µM, first compound 0.00949 µM
# [48] = second compound 10 µM, first compound 0.03 µM
# [49] = second compound 10 µM, first compound 0.0949 µM
# [50] = second compound 10 µM, first compound 0.3 µM
structure (smiles),measurement,setting,value
CC1(C)CCC(CN2CCN(c3ccc(C(=O)NS(=O)(=O)c4ccc(NCC5CCOCC5)c([N+](=O)[O-])c4)c(Oc4cnc5[nH]ccc5c4)c3)CC2)=C(c2ccc(Cl)cc2)C1 + NC1CCC(NC2CC2c2ccccc2)CC1,IC50,second compound 0.1 µM,7150 nM
same,IC50,second compound 0.316 µM,7060 nM
same,IC50,second compound 1 µM,6810 nM
same,IC50,second compound 3.16 µM,6300 nM
same,IC50,second compound 10 µM,5480 nM
same,"viability, T/C",[1],116%
same,"viability, T/C",[2],97.5%
same,"viability, T/C",[3],105%
same,"viability, T/C",[4],98.9%
same,"viability, T/C",[5],111%
same,"viability, T/C",[6],27.1%
same,"viability, T/C",[7],108%
same,"viability, T/C",[8],97.6%
same,"viability, T/C",[9],98.4%
same,"viability, T/C",[10],108%
same,"viability, T/C",[11],111%
same,"viability, T/C",[12],26.2%
same,"viability, T/C",[13],97.6%
same,"viability, T/C",[14],91.5%
same,"viability, T/C",[15],92.3%
same,"viability, T/C",[16],101%
same,"viability, T/C",[17],96.1%
same,"viability, T/C",[18],27%
same,"viability, T/C",[19],99.9%
same,"viability, T/C",[20],106%
same,"viability, T/C",[21],105%
same,"viability, T/C",[22],104%
same,"viability, T/C",[23],88.8%
same,"viability, T/C",[24],23.8%
same,"viability, T/C",[25],90.7%
same,"viability, T/C",[26],93.3%
same,"viability, T/C",[27],78.4%
same,"viability, T/C",[28],91.7%
same,"viability, T/C",[29],72.8%
same,"viability, T/C",[30],24.9%
CC1COCCN1c1cc(C2(S(C)(=N)=O)CC2)nc(-c2ccnc3[nH]ccc23)n1 (stereo not given) + NC1CCC(NC2CC2c2ccccc2)CC1,IC50,second compound 0.1 µM,2530 nM
same,IC50,second compound 0.316 µM,2620 nM
same,IC50,second compound 1 µM,3030 nM
same,IC50,second compound 3.16 µM,2700 nM
same,IC50,second compound 10 µM,2200 nM
same,"viability, T/C",[1],102%
same,"viability, T/C",[2],116%
same,"viability, T/C",[3],97.7%
same,"viability, T/C",[4],69.9%
same,"viability, T/C",[5],47.4%
same,"viability, T/C",[6],35.6%
same,"viability, T/C",[7],108%
same,"viability, T/C",[8],103%
same,"viability, T/C",[9],94.7%
same,"viability, T/C",[10],70%
same,"viability, T/C",[11],45.8%
same,"viability, T/C",[12],37.2%
same,"viability, T/C",[13],109%
same,"viability, T/C",[14],99.5%
same,"viability, T/C",[15],97.8%
same,"viability, T/C",[16],70.9%
same,"viability, T/C",[17],50.5%
same,"viability, T/C",[18],36%
same,"viability, T/C",[19],104%
same,"viability, T/C",[20],106%
same,"viability, T/C",[21],97%
same,"viability, T/C",[22],70.2%
same,"viability, T/C",[23],48.4%
same,"viability, T/C",[24],37.1%
same,"viability, T/C",[25],84%
same,"viability, T/C",[26],82.4%
same,"viability, T/C",[27],79.2%
same,"viability, T/C",[28],61.3%
same,"viability, T/C",[29],45.3%
same,"viability, T/C",[30],34%
CCN(c1cc(-c2ccc(CN3CCOCC3)cc2)cc(C(=O)NCc2c(C)cc(C)[nH]c2=O)c1C)C1CCOCC1 + NC1CCC(NC2CC2c2ccccc2)CC1,IC50,second compound 0.1 µM,> 3000 nM
same,IC50,second compound 0.316 µM,> 3000 nM
same,IC50,second compound 1 µM,> 3000 nM
same,IC50,second compound 3.16 µM,> 3000 nM
same,IC50,second compound 10 µM,> 3000 nM
same,"viability, T/C",[31],116%
same,"viability, T/C",[32],110%
same,"viability, T/C",[33],96.1%
same,"viability, T/C",[34],100%
same,"viability, T/C","second compound 0.1 µM, first compound 0.949 µM",106%
same,"viability, T/C","second compound 0.1 µM, first compound 3 µM",101%
same,"viability, T/C",[35],109%
same,"viability, T/C",[36],114%
same,"viability, T/C",[37],101%
same,"viability, T/C",[38],108%
same,"viability, T/C","second compound 0.316 µM, first compound 0.949 µM",103%
same,"viability, T/C","second compound 0.316 µM, first compound 3 µM",101%
same,"viability, T/C",[39],92.4%
same,"viability, T/C",[40],105%
same,"viability, T/C",[41],90.6%
same,"viability, T/C",[42],97%
same,"viability, T/C","second compound 1 µM, first compound 0.949 µM",96.5%
same,"viability, T/C","second compound 1 µM, first compound 3 µM",87.6%
same,"viability, T/C",[43],96%
same,"viability, T/C",[44],94.5%
same,"viability, T/C",[45],94%
same,"viability, T/C",[46],81.4%
same,"viability, T/C","second compound 3.16 µM, first compound 0.949 µM",89.9%
same,"viability, T/C","second compound 3.16 µM, first compound 3 µM",94.4%
same,"viability, T/C",[47],88.2%
same,"viability, T/C",[48],82.1%
same,"viability, T/C",[49],93.7%
same,"viability, T/C",[50],79.9%
same,"viability, T/C","second compound 10 µM, first compound 0.949 µM",72.5%
same,"viability, T/C","second compound 10 µM, first compound 3 µM",76.4%
Nc1ncn(C2CC(O)C(CO)S2)c(=O)n1 (stereo not given) + NC1CCC(NC2CC2c2ccccc2)CC1,IC50,second compound 0.1 µM,> 300 nM
same,IC50,second compound 0.316 µM,> 300 nM
same,IC50,second compound 1 µM,> 300 nM
same,IC50,second compound 3.16 µM,> 300 nM
same,IC50,second compound 10 µM,> 300 nM
same,"viability, T/C","second compound 0.1 µM, first compound 0.000949 µM",119%
same,"viability, T/C","second compound 0.1 µM, first compound 0.003 µM",104%
same,"viability, T/C",[31],111%
same,"viability, T/C",[32],99.6%
same,"viability, T/C",[33],92.2%
same,"viability, T/C",[34],77%
same,"viability, T/C","second compound 0.316 µM, first compound 0.000949 µM",112%
same,"viability, T/C","second compound 0.316 µM, first compound 0.003 µM",102%
same,"viability, T/C",[35],105%
same,"viability, T/C",[36],94.6%
same,"viability, T/C",[37],93.4%
same,"viability, T/C",[38],80.2%
same,"viability, T/C","second compound 1 µM, first compound 0.000949 µM",102%
same,"viability, T/C","second compound 1 µM, first compound 0.003 µM",99.5%
same,"viability, T/C",[39],101%
same,"viability, T/C",[40],89.8%
same,"viability, T/C",[41],93.9%
same,"viability, T/C",[42],80.5%
same,"viability, T/C","second compound 3.16 µM, first compound 0.000949 µM",92%
same,"viability, T/C","second compound 3.16 µM, first compound 0.003 µM",101%
same,"viability, T/C",[43],94.1%
same,"viability, T/C",[44],96.9%
same,"viability, T/C",[45],89%
same,"viability, T/C",[46],75.8%
same,"viability, T/C","second compound 10 µM, first compound 0.000949 µM",91%
same,"viability, T/C","second compound 10 µM, first compound 0.003 µM",81.9%
same,"viability, T/C",[47],85.9%
same,"viability, T/C",[48],83.7%
same,"viability, T/C",[49],82.7%
same,"viability, T/C",[50],71%
O=C(C=Cn1cnc(-c2cc(C(F)(F)F)cc(C(F)(F)F)c2)n1)NNc1cnccn1 + NC1CCC(NC2CC2c2ccccc2)CC1,IC50,second compound 0.1 µM,235 nM
same,IC50,second compound 0.316 µM,215 nM
same,IC50,second compound 1 µM,> 1000 nM
same,IC50,second compound 3.16 µM,705 nM
same,IC50,second compound 10 µM,312 nM
same,"viability, T/C","second compound 0.1 µM, first compound 0.00316 µM",97.6%
same,"viability, T/C","second compound 0.1 µM, first compound 0.01 µM",88.2%
same,"viability, T/C",[1],67.2%
same,"viability, T/C",[2],55%
same,"viability, T/C",[3],50.3%
same,"viability, T/C",[4],44.9%
same,"viability, T/C","second compound 0.316 µM, first compound 0.00316 µM",104%
same,"viability, T/C","second compound 0.316 µM, first compound 0.01 µM",85.8%
same,"viability, T/C",[7],69.6%
same,"viability, T/C",[8],51%
same,"viability, T/C",[9],49.6%
same,"viability, T/C",[10],45.7%
same,"viability, T/C","second compound 1 µM, first compound 0.00316 µM",88.4%
same,"viability, T/C","second compound 1 µM, first compound 0.01 µM",84.1%
same,"viability, T/C",[13],68.8%
same,"viability, T/C",[14],59.4%
same,"viability, T/C",[15],54.5%
same,"viability, T/C",[16],50.3%
same,"viability, T/C","second compound 3.16 µM, first compound 0.00316 µM",97.9%
same,"viability, T/C","second compound 3.16 µM, first compound 0.01 µM",88.1%
same,"viability, T/C",[19],74.4%
same,"viability, T/C",[20],60%
same,"viability, T/C",[21],57.2%
same,"viability, T/C",[22],46.9%
same,"viability, T/C","second compound 10 µM, first compound 0.00316 µM",83.6%
same,"viability, T/C","second compound 10 µM, first compound 0.01 µM",84.7%
same,"viability, T/C",[25],70.6%
same,"viability, T/C",[26],59.8%
same,"viability, T/C",[27],50%
same,"viability, T/C",[28],46.3%

# Source: PubChem BioAssay AID1918956 (Molecular Pharmacology Branch, DTP, NCI, 2023)
